Data reported in ChEMBL document CHEMBL1152249, “2,6-Diaryl-4-acylaminopyrimidines as potent and selective adenosine A(2A) antagonists with improved solubility and metabolic stability” (Bioorg Med Chem Lett, 2008).
Activity calls are given as the source filed them. The rule behind the calls is not given here.

Columns and labels:
Homo sapiens = species: Homo sapiens; experiment: Selectivity for human adenosine A2A receptor over human adenosine A1 receptor
[1] = Metabolic stability in human liver microsomes assessed as intrinsic clearance; format: ADME, Microsome
Adenosine receptor A2a [2] = molecular target: Adenosine receptor A2a (Homo sapiens, UniProt P29274); experiment: Displacement of [3H]ZM-241385 from human adenosine A2A receptor expressed in HEK293 cells; format: cell-based
[3] = Aqueous solubility at pH 8.0 by HPLC; format: physicochemical
Adenosine receptor A2a [4] = molecular target: Adenosine receptor A2a (Rattus norvegicus, UniProt P30543); experiment: Activity at adenosine A2A receptor in rat PC12 cells assessed as intracellular cAMP accumulation; format: functional, cell-based, PC-12
Rattus norvegicus [5] = experiment: Inhibition of haloperidol-induced catalepsy in po dosed rat; format: functional; conditions: read-out: MED
Cytochrome P450 3A4 = Cytochrome P450 3A4 (Homo sapiens, UniProt P08684); experiment: Inhibition of CYP3A4; format: ADME
Rattus norvegicus [6] = experiment: Inhibition of haloperidol-induced catalepsy in rat at 30 mg/kg, po; format: functional, organism-based; set-up: dose 30 mg/kg
Cytochrome P450 2D6 = Cytochrome P450 2D6 (Homo sapiens, UniProt P10635); experiment: Inhibition of CYP2D6; format: ADME
Cytochrome P450 2D6, sequence (P10635 whole entry): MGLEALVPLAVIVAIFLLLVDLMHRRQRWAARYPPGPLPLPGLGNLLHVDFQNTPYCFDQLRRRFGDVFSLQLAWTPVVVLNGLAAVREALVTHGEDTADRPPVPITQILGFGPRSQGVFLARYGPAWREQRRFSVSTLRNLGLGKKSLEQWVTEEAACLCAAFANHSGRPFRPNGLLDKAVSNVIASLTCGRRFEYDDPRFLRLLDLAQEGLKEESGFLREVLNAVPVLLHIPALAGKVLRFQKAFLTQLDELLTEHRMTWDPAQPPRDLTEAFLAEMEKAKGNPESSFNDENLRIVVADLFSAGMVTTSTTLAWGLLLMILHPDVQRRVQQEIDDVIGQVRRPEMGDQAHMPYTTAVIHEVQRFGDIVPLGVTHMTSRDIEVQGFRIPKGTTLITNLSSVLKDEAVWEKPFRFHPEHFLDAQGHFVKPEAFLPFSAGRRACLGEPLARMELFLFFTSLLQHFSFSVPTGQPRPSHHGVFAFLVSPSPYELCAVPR

Adenosine receptor A2a (Rattus norvegicus, UniProt P30543), sequence (P30543 whole entry): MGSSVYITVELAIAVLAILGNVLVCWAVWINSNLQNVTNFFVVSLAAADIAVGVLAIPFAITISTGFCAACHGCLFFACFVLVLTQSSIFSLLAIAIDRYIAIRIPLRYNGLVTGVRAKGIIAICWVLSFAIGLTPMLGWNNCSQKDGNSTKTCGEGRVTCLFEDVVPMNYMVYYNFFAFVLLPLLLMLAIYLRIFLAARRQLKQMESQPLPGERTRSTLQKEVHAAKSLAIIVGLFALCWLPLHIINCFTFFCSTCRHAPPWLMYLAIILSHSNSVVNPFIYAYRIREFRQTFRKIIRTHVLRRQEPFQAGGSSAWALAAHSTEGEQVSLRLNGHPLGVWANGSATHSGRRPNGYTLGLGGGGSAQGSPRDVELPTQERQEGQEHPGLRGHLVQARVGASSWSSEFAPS
Adenosine receptor A2a (Homo sapiens, UniProt P29274), sequence (P29274 whole entry): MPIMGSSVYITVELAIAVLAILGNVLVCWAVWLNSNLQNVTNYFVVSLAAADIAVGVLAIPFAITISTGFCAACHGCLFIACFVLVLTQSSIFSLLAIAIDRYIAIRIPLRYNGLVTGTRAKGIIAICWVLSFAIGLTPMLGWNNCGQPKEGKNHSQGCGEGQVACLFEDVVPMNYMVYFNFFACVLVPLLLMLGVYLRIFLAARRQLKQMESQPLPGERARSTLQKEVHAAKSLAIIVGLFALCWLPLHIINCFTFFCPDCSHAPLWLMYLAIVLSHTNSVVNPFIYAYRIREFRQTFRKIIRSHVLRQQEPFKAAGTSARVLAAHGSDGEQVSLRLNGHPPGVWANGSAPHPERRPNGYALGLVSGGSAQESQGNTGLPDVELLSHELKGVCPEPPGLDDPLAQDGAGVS
Cytochrome P450 3A4, sequence (P08684 whole entry): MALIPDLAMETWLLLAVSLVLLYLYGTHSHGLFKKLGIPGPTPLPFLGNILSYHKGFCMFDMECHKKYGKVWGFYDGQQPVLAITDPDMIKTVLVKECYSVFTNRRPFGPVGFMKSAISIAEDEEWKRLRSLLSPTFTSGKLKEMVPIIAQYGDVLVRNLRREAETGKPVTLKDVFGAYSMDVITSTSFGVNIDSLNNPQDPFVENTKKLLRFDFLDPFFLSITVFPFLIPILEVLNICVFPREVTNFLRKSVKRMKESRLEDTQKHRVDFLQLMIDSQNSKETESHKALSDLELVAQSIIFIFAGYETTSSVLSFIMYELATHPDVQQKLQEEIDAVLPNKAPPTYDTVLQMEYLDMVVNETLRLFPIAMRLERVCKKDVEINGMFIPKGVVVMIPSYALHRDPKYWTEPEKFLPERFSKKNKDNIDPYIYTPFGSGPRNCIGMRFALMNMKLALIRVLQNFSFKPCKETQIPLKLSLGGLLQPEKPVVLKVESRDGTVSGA

Row | Compound | Ratio Ki (Homo sapiens) | Ki (Adenosine receptor A2a [2]) | also measured
1 | CC(=O)Nc1cc(-c2cc(F)cc(OC3CCN(C)C3)c2)nc(-n2nc(C)cc2C)n1 (centres undefined) | 135 | 1 nM | CLint scaled [1]: 3 mL/min/kg
2 | CC(=O)Nc1cc(-c2cc(C)cc(C)c2)nc(-n2nc(C)cc2C)n1 | 43 | 8 nM | –
3 | COc1cc(OC)cc(-c2cc(NC(C)=O)nc(-n3nc(C)cc3C)n2)c1 | 111 | 0.2 nM | solubility [3]: < 100 µg/mL; IC50 (Adenosine receptor A2a [4]): 29 nM; minimal effective dose (Rattus norvegicus [5]): 1 mg/kg; Activity (Cytochrome P450 3A4; TDE = time-dependent effect): tde
4 | CC(=O)Nc1cc(-c2cccc(O[C@@H]3CCN(C)C3)c2)nc(-n2nc(C)cc2C)n1 | 145 | 4 nM | –
5 | COc1ccccc1-c1cc(NC(C)=O)nc(-n2nc(C)cc2C)n1 | 71 | 2 nM | –
6 | COc1ccc(-c2cc(NC(C)=O)nc(-n3nc(C)cc3C)n2)cc1 | 44 | 17 nM | –
7 | CC(=O)Nc1cc(-c2cccc(O)c2)nc(-n2nc(C)cc2C)n1 | 74 | 2 nM | –
8 | CC(=O)Nc1cc(-c2ccccc2)nc(-n2nc(C)cc2C)n1 | 7 | 87 nM | –
9 | CN1CCN(CC(=O)Nc2cc(-n3cccn3)nc(-c3ccco3)n2)CC1 | – | 3 nM | –
10 | CC(=O)Nc1cc(-c2cccc(OC3CCN(C)CC3)c2)nc(-n2nc(C)cc2C)n1 | 146 | 6 nM | –
11 | CC(=O)Nc1cc(-c2cccc(OCCN(C)C)c2)nc(-n2nc(C)cc2C)n1 | 134 | 5 nM | solubility [3]: > 4000 µg/mL
12 | CCN1CCC(Oc2cccc(-c3cc(NC(C)=O)nc(-n4nc(C)cc4C)n3)c2)C1 (centres undefined) | 168 | 3 nM | –
13 | CC(=O)Nc1cc(-c2cccc(C(F)(F)F)c2)nc(-n2nc(C)cc2C)n1 | 40 | 2 nM | –
14 | CC(=O)Nc1cc(-c2cc(C)ccc2C)nc(-n2nc(C)cc2C)n1 | 46 | 19 nM | –
15 | CC(=O)Nc1cc(-c2cccc(OC3CCCN(C)C3)c2)nc(-n2nc(C)cc2C)n1 (centres undefined) | 203 | 1 nM | –
16 | CC(=O)Nc1cc(-c2cccc(C#N)c2)nc(-n2nc(C)cc2C)n1 | 10 | 2 nM | –
17 | COc1cccc(-c2cc(NC(C)=O)nc(-n3nc(C)cc3C)n2)c1 | 72 | 1 nM | –
18 | CC(=O)Nc1cc(-c2cccc(OC3CCN(C(C)C)C3)c2)nc(-n2nc(C)cc2C)n1 (centres undefined) | 167 | 3 nM | –
19 | COc1c(F)cccc1-c1cc(NC(C)=O)nc(-n2nc(C)cc2C)n1 | 164 | 3 nM | solubility [3]: < 100 µg/mL
20 | CC(=O)Nc1cc(-c2cccc(C)c2)nc(-n2nc(C)cc2C)n1 | 59 | 7 nM | –
21 | CC(=O)Nc1cc(-c2cc(F)cc(O[C@H]3CCN(C)C3)c2)nc(-n2nc(C)cc2C)n1 | 218 | 1 nM | Activity (Rattus norvegicus [6]): Active; solubility [3]: > 4000 µg/mL; CLint scaled [1]: 3 mL/min/kg; IC50 (Adenosine receptor A2a [4]): 15 nM; Activity (Cytochrome P450 3A4): Not Active; Activity (Cytochrome P450 2D6): Not Active
22 | CC(=O)Nc1cc(-c2cc(O)cc(F)c2)nc(-n2nc(C)cc2C)n1 | 54 | 2 nM | –
23 | CC(=O)Nc1cc(-c2cccc(OC3CCN(C)C3)c2)nc(-n2nc(C)cc2C)n1 (centres undefined) | 191 | 2 nM | solubility [3]: > 4000 µg/mL; CLint scaled [1]: 54 mL/min/kg; IC50 (Adenosine receptor A2a [4]): 42 nM
24 | CC(=O)Nc1cc(-c2cccc(CO[C@H]3CCN(C)C3)c2)nc(-n2nc(C)cc2C)n1 | 102 | 73 nM | –
25 | CC(=O)Nc1cc(-c2cc(F)cc(O[C@@H]3CCN(C)C3)c2)nc(-n2nc(C)cc2C)n1 | 125 | 2 nM | CLint scaled [1]: 3 mL/min/kg
26 | CC(=O)Nc1cc(-c2cccc(CC#N)c2)nc(-n2nc(C)cc2C)n1 | 50 | 2 nM | –
27 | CC(=O)Nc1cc(-c2cccc(CO[C@@H]3CCN(C)C3)c2)nc(-n2nc(C)cc2C)n1 | 99 | 67 nM | –
28 | CC(=O)Nc1cc(-c2cccc(O[C@H]3CCN(C)C3)c2)nc(-n2nc(C)cc2C)n1 | 320 | 2 nM | –
29 | CC(=O)Nc1cc(-c2cc(F)cc(F)c2)nc(-n2nc(C)cc2C)n1 | 64 | 4 nM | –
